Test results reported in ChEMBL document CHEMBL2203037, “Synthesis and Anti-influenza A Virus Activity of 2,2-Dialkylamantadines and Related Compounds” (ACS Med Chem Lett, 2012).
pEC50: −log10 of the molar value.

Experiments:
[1] = test system: Influenza B virus; assay: Antiviral activity against amantidine and rimantadine-resistant Influenza B virus (B/HK/5/72) infected in MDCK cells assessed as virus-induced cytopathic effect by MTS assay; format: functional, cell-based; settings: B/Hong Kong/05/1972, MDCK
[2] = test system: Influenza B virus; assay: Antiviral activity against amantidine and rimantadine-resistant Influenza B virus (B/HK/5/72) infected in MDCK cells assessed as virus-induced cytopathic effect measured 3 days post infection by microscopic analysis; format: functional, cell-based; settings: B/Hong Kong/05/1972, MDCK, 72 h
[3] = test system: Influenza A virus; assay: Antiviral activity against amantadine-resistant Influenza A virus (A/PR/8/34 (H1N1)) infected in MDCK cells assessed as virus-induced cytopathic effect by MTS assay; format: functional, organism-based, A/Puerto Rico/8/1934(H1N1)
[4] = test system: Influenza A virus; assay: Antiviral activity against amantadine-resistant Influenza A virus (A/PR/8/34 (H1N1)) infected in MDCK cells assessed as virus-induced cytopathic effect measured 3 days post infection by microscopic analysis; format: functional, organism-based; settings: A/Puerto Rico/8/1934(H1N1), 72 h
[5] = Selectivity index, ratio of CC50 for dog MDCK cells to EC50 for amantadine-resistant Influenza A virus (A/PR/8/34 (H1N1)); format: toxicity, cell-based; settings: read-out: Ratio CC50/EC50
[6] = Influenza A virus, A/Puerto Rico/8/1934(H1N1), MDCK

Row | SMILES | pEC50 [1] | pEC50 [2] | pEC50 [3, 6] | pEC50 [4] | selectivity ratio [5] | pEC50 ([3]; mdck)
1 | CC1(C)C2CC3CC(C2)CC1(NCc1ccccc1)C3 | < 4.00 | < 4.00 | < 4.00 | < 4.00 | – | –
2 | CNC12CC3CC(CC(C3)C1(C)C)C2 | < 4.00 | < 4.00 | 5.00 | 5.22 | – | –
3 | CC(C)C1C2CC3CC(C2)CC1(N(C)C)C3 (centres undefined) | < 4.30 | < 4.00 | 5.22 | 5.29 | – | –
4 | CN(C)C12CC3(C)CC(CC3(C)C1)C2(C)C | < 4.00 | < 4.00 | 5.24 | 5.24 | – | –
5 | CC1(C)C2CC3CC(C2)CC1(N1CCCCC1)C3 | < 4.00 | < 4.00 | < 4.00 | < 4.00 | – | –
6 | CCNC12CC3CC(CC(C3)C1(C)C)C2 | < 4.00 | < 4.00 | < 4.00 | < 4.00 | – | –
7 | CC(C)C1C2CC3CC(C2)CC1(N)C3 (centres undefined) | < 4.00 | < 4.00 | 5.92 | 5.24 | – | –
8 | CCCC1(CCC)C2CC3CC(C2)CC1(N)C3 | < 4.00 | < 4.00 | < 4.00 | < 4.00 | – | –
9 | CCC1(CC)C2CC3CC(C2)CC1(N)C3 | < 4.00 | < 4.00 | 5.77 | 5.92 | > 50 | –
10 | CCC1(CC)C2CC3CC(C2)CC1(NC)C3 | < 4.00 | < 4.00 | – | 5.40 | – | –
11 | CC(N)C12CC3CC(CC(C3)C1)C2 (centres undefined) [RIMANTADINE] | < 4.00 | < 4.00 | – | 4.20 | – | –
12 | CCCC1(CCC)C2CC3CC(C2)CC1(N(C)C)C3 | < 4.00 | < 4.00 | 5.17 | 5.22 | – | –
13 | CC12CC3CC1(C)CC(N)(C2)C3(C)C | < 4.00 | < 4.00 | 5.35 | 5.34 | – | –
14 | NC12CC3CC(CC(C3)C1)C2 [AMANTADINE] | < 4.00 | < 4.00 | – | 4.28 | – | –
15 | NC12CC3CC(CC(C3)C13CCCCC3)C2 | < 4.00 | < 4.00 | 6.05 | 5.96 | – | –
16 | CC(=O)N[C@H]1[C@H]([C@H](O)[C@H](O)CO)OC(C(=O)O)=C[C@@H]1NC(=N)N [ZANAMIVIR] | – | – | – | 5.22 | – | –
17 | CC1(C)C2CC3CC(C2)CC1(N)C3 | < 4.00 | < 4.00 | 5.00 | 4.82 | – | –
18 | CN(Cc1ccccc1)C12CC3CC(CC(C3)C1(C)C)C2 | < 4.00 | < 4.00 | < 4.00 | < 4.00 | – | –
19 | NC(=O)c1ncn([C@@H]2O[C@H](CO)[C@@H](O)[C@H]2O)n1 [RIBAVIRIN] | 5.09 | 5.10 | – | – | – | 5.09
20 | CCOC(=O)C1=C[C@@H](OC(CC)CC)[C@H](NC(C)=O)[C@@H](N)C1 [OSELTAMIVIR] | – | – | – | 4.68 | – | –
21 | CN(C)C12CC3CC(CC(C3)C1(C)C)C2 | < 4.00 | < 4.00 | 5.32 | 5.40 | – | –
22 | CCC1(CC)C2CC3CC(C2)CC1(N(C)C)C3 | < 4.00 | < 4.00 | 5.02 | 6.15 | – | –
